Laboratory results published in patent US8808721B2, “Bed bug attractants and methods for trapping bed bugs” (SpringStar Inc., priority 2011, dated 2014).

Columns and labels:
[1] = test system: bed bugs; assay: ST traps, kairomone components (Example 9); type: in vivo, Cimex lectularius; details: combined with CO2 and heat, Location 4
Method: The kairomone composition of A1 was split into it components by chemical class, to determine if all components were necessary. Three new kairomone blends were tested (Table 3, Example 4). Blend A2 contained only skatole and androstenone (male boar compounds), and the adjuvants. Blend A3 contained all the ingredients from A1, but in slightly different ratios. Blend A4 contained only the fatty acid components and adjuvants. Four treatments were tested as follows: T0=CF1S+HW;T1=CF1+HW+A3;T2=CF1+HW+A2;T3=CF1+HW+A4
For treatment T0, the CO2 blend was made without skatole (CF1S, Table 1, Example 1). All treatments were tested using ST traps assembled as in Example 4.
A new location was used for testing kairomone components. Location 4 was an inhabited, 2-bedroom duplex in the suburbs of Seattle. Vacuum sampling estimated bed bug populations in each room at between 2,000 and 10,000 insects, which is considered heavily infested. Two people slept in the bedrooms on cots raised 50 cm off the carpet, which were then isolated from bed bugs in harborages by placing under each bed leg a plastic 16 oz drinking cup filled with propylene glycol or white pepper powder. […]

[2] = test system: bed bugs; assay: ST traps, adding skatole to carbon dioxide bait (Example 10); set-up: species or system Cimex lectularius; details: in vivo
Text: Four ST traps from Example 3, baited with CF1, were paired with four ST traps baited with CF1S. Traps were placed in each of four corners of the location in Example 3. Traps were retrieved after one night. […] Additionally, all CF1 traps caught at least 2 bed bugs whereas half of the CF1S traps caught no bed bugs.

SMILES	attractiveness of kairomone blend or component to bed bugs [1]	effect of adding to the fermentative mixture on trap attractiveness [2]
C[C@]12CCC(=O)C[C@@H]1CC[C@@H]1[C@@H]2CC[C@]2(C)C=CC[C@@H]12 [androstenone]	acted synergistically with the fatty acid compounds to attract bed bugs	–
Cc1c[nH]c2ccccc12 [skatole, 3-methyl indole]	–	increased trap attractiveness to bed bugs
